{
  "source": "ChEMBL document CHEMBL1201862",
  "about": "“PubChem BioAssay data set” (2004)",
  "key": {"[1]": {"assay": "Counterscreen for IDE inhibitors: Luminescence-based cell-based high throughput dose response assay to identify compounds that are cytotoxic to HEK cells. [Related pubchem assays: 434962 (Primary screen (IDE inhibitors in singlicate)), 449730 (Counterscreen (Cytotoxicity in triplicate)), 435028 (Confirmation (IDE inhibitors in triplicate)) …", "assay_type": "functional", "conditions": "HEK293"}, "Insulin-degrading enzyme": {"target": "T1, Insulin-degrading enzyme (Homo sapiens, UniProt P14735)", "T1 sequence (P14735 whole entry)": "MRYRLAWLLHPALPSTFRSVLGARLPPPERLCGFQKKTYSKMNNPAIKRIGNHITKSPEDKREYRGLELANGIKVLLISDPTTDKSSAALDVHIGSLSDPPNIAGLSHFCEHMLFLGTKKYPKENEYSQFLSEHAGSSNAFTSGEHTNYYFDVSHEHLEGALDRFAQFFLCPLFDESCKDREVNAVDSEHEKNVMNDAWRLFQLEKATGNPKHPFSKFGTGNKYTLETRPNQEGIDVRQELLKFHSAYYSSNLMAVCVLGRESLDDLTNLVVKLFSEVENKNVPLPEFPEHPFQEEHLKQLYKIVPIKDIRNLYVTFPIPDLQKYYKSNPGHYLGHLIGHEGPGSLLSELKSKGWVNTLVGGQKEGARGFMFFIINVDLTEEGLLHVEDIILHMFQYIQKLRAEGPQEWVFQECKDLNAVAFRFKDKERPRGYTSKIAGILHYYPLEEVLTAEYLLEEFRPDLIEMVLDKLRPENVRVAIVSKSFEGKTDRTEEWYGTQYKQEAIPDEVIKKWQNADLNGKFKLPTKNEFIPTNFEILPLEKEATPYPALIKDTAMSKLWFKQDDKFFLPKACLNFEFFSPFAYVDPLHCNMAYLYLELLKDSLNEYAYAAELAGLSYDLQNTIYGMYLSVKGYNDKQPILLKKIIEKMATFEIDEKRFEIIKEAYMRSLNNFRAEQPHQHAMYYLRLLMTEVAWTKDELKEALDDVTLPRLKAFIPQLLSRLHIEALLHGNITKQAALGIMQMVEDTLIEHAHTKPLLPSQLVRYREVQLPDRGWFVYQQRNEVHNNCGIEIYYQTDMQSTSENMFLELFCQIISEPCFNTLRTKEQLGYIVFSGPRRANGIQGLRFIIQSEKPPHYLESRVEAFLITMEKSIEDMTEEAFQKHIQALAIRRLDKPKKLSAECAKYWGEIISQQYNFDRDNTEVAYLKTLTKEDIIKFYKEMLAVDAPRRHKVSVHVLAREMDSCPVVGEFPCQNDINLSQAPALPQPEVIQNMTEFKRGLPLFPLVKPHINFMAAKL", "assay": "Dose Response: Fluorescence polarization-based cell-based high throughput dose response assay for inhibitors of insulin-degrading enzyme (IDE). [Related pubchem assays: 434962 (Primary screen (IDE inhibitors in singlicate)), 449730 (Counterscreen (Cytotoxicity in triplicate)), 435028 (Confirmation (IDE inhibitors in triplicate)), 434984 (Summary …", "assay_type": "functional"}, "[2]": {"assay": "HIV-1 Env-mediated cell fusion inhibitors, dose response, CCR5-tropic Env (AID 2279)", "assay_type": "functional"}, "[3]": {"assay": "A Cell Based Secondary Assay To Explore Cytotoxicity of Compounds that Sensitize Mycobacterium Tuberculosis to Beta-Lactam Antibiotics.", "assay_type": "functional"}, "Cytochrome P450 2D6": {"target": "Cytochrome P450 2D6 (Homo sapiens, UniProt P10635)", "sequence (P10635 whole entry)": "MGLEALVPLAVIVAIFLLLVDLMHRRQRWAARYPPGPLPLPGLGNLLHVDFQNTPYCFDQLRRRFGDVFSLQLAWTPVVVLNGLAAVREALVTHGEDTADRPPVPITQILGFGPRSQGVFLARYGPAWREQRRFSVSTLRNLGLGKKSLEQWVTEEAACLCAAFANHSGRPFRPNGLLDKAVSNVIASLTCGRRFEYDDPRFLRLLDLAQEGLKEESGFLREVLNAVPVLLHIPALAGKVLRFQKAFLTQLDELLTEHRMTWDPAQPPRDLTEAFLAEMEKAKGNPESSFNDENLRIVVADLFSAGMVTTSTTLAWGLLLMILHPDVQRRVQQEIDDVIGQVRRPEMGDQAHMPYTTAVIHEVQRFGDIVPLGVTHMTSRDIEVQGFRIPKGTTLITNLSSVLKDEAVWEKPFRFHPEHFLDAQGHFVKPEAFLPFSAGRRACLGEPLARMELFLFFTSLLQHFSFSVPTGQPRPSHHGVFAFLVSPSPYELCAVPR", "assay": "qHTS Assay for Inhibitors and Substrates of Cytochrome P450 2D6. [Related pubchem assays: 410 ]", "assay_type": "ADME", "conditions": "read-out: Potency"}},
  "note": "Activity calls are given as the source filed them.",
  "data": [
    {"smiles": "CCOC(=O)N1CCN(c2ccnc3cc(Cl)ccc23)CC1", "values": [
      {"measurement": "IC50", "setting": "[1]", "result": "15.7 µM (not active)"},
      {"measurement": "IC50", "setting": "Insulin-degrading enzyme", "result": "18.9 µM (not active)"}
    ]},
    {"smiles": "COc1cc([N+](=O)[O-])cc(/C=C2/SC(=S)N(Cc3ccccc3)C2=O)c1O", "values": [
      {"measurement": "IC50", "setting": "[2]", "result": "8.82 µM (active)"}
    ]},
    {"smiles": "CN(c1ccc(C(=O)Nc2ccccc2Sc2ccccc2)cc1)S(C)(=O)=O", "values": [
      {"measurement": "CC50", "setting": "[3]", "result": "> 40 µM (active)"}
    ]},
    {"smiles": "CC(=O)OCC1OC(C#Cc2ccc(F)cc2F)C=CC1OC(C)=O", "note": "(stereo not given)", "values": [
      {"measurement": "AC50", "setting": "Cytochrome P450 2D6", "result": "6.31 µM (inconclusive)"}
    ]}
  ]
}
